According to the supplement of paper PMC11451515:

Tested on: SEM cells
Test: cell viability relative to DMSO control; higher = less cytotoxic
Settings: 48 h
Summary of the method: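 Before seeding, each leukemia line was adapted for at least four passages in each medium. NOMO1 or SEM cells (500 cells/well) and P12-Ichikawa cells (1000 cells/well) went into 1536-well plates at 5 μl, then received library compounds in DMSO by pin dosing across 11 threefold concentrations, 47 μM to 0.79 nM. Readout was CellTiter-Glo One luminescence after 48 h at 37°C, and viability is given as a per-plate percentage of DMSO wells, with cell-free wells as background.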

[1] = HPLM + 10% dialyzed FBS, 0.000781 µM
[2] = HPLM + 10% dialyzed FBS, 0.00234 µM
[3] = HPLM + 10% dialyzed FBS, 0.00702 µM
[4] = HPLM + 10% dialyzed FBS, 0.0211 µM
[5] = HPLM + 10% dialyzed FBS, 0.0632 µM
[6] = HPLM + 10% dialyzed FBS, 0.19 µM
[7] = HPLM + 10% dialyzed FBS, 0.569 µM
[8] = HPLM + 10% dialyzed FBS, 1.71 µM
[9] = HPLM + 10% dialyzed FBS, 5.12 µM
[10] = HPLM + 10% dialyzed FBS, 15.4 µM
[11] = HPLM + 10% dialyzed FBS, 46.1 µM
[12] = RPMI 5 mM glucose + 10% FBS, 0.000781 µM
[13] = RPMI 5 mM glucose + 10% FBS, 0.00234 µM
[14] = RPMI 5 mM glucose + 10% FBS, 0.00702 µM
[15] = RPMI 5 mM glucose + 10% FBS, 0.0211 µM
[16] = RPMI 5 mM glucose + 10% FBS, 0.0632 µM
[17] = RPMI 5 mM glucose + 10% FBS, 0.19 µM
[18] = RPMI 5 mM glucose + 10% FBS, 0.569 µM
[19] = RPMI 5 mM glucose + 10% FBS, 1.71 µM
[20] = RPMI 5 mM glucose + 10% FBS, 5.12 µM
[21] = RPMI 5 mM glucose + 10% FBS, 15.4 µM
[22] = RPMI 5 mM glucose + 10% FBS, 46.1 µM
[23] = RPMI 5 mM glucose + 10% dialyzed FBS, 0.000781 µM
[24] = RPMI 5 mM glucose + 10% dialyzed FBS, 0.00234 µM
[25] = RPMI 5 mM glucose + 10% dialyzed FBS, 0.00702 µM
[26] = RPMI 5 mM glucose + 10% dialyzed FBS, 0.0211 µM
[27] = RPMI 5 mM glucose + 10% dialyzed FBS, 0.0632 µM
[28] = RPMI 5 mM glucose + 10% dialyzed FBS, 0.19 µM
[29] = RPMI 5 mM glucose + 10% dialyzed FBS, 0.569 µM
[30] = RPMI 5 mM glucose + 10% dialyzed FBS, 1.71 µM
[31] = RPMI 5 mM glucose + 10% dialyzed FBS, 5.12 µM
[32] = RPMI 5 mM glucose + 10% dialyzed FBS, 15.4 µM
[33] = RPMI 5 mM glucose + 10% dialyzed FBS, 46.1 µM

Structure (SMILES)	cell viability [1]	cell viability [2]	cell viability [3]	cell viability [4]	cell viability [5]	cell viability [6]	cell viability [7]	cell viability [8]	cell viability [9]	cell viability [10]	cell viability [11]	cell viability [12]	cell viability [13]	cell viability [14]	cell viability [15]	cell viability [16]	cell viability [17]	cell viability [18]	cell viability [19]	cell viability [20]	cell viability [21]	cell viability [22]	cell viability [23]	cell viability [24]	cell viability [25]	cell viability [26]	cell viability [27]	cell viability [28]	cell viability [29]	cell viability [30]	cell viability [31]	cell viability [32]	cell viability [33]
CC[C@]12CC[C@H]3[C@@H](CCC/4=C/C(=O)CC[C@H]34)[C@@H]1CC[C@@]2(O)C#C	93.7%	79.6%	97.7%	92.4%	103%	83.1%	87.8%	77.9%	83.6%	80.9%	82.8%	85.7%	102%	102%	109%	108%	85.2%	86.9%	86.5%	97.9%	87.4%	96.5%	103%	90.3%	81.9%	102%	101%	96.8%	101%	114%	94.8%	111%	105%
O=S(=O)([O-])CCS.[Na+]	96.5%	104%	100%	96.9%	113%	113%	122%	107%	100%	116%	107%	101%	102%	89.6%	124%	107%	115%	109%	124%	112%	123%	122%	109%	104%	108%	108%	114%	137%	130%	135%	121%	137%	155%
COc1ccc(C(=O)c2c(C)n(CCN3CCOCC3)c3ccccc23)cc1	83.5%	93.6%	93.3%	102%	99.8%	105%	84.3%	108%	104%	108%	103%	74.4%	89%	88.5%	88.3%	91.5%	93.2%	77.9%	85.2%	87.5%	72.8%	66.5%	95.6%	88.3%	97.9%	93.5%	97.2%	97.4%	96.1%	83.8%	102%	92.1%	87.8%
COc1cc(Nc2c(C#N)cnc3cc(OCCCN4CCN(C)CC4)c(OC)cc23)c(Cl)cc1Cl	87.1%	96.8%	114%	113%	111%	95%	109%	54.6%	13%	5.77%	6.12%	72.5%	68.2%	75.7%	74.8%	73.1%	84.7%	68.1%	44%	7.02%	3.9%	4.3%	95.9%	89.4%	103%	105%	96.1%	98%	100%	62.1%	17.5%	5.92%	5.77%
C[C@@H]1O[C@@H](O[C@H]2C[C@@H](O)[C@]3(CO)[C@H]4[C@H](O)C[C@]5(C)[C@@H](C6=CC(=O)OC6)CC[C@]5(O)[C@@H]4CC[C@]3(O)C2)[C@H](O)[C@H](O)[C@H]1O	85.4%	99.6%	93.6%	85.8%	17.8%	9.08%	7.03%	5.97%	7.25%	6.63%	6.23%	109%	113%	114%	106%	109%	14.9%	7.93%	6.18%	8%	7.1%	6.23%	104%	100%	97.3%	98.3%	60%	12.6%	7.03%	6.93%	8.44%	7.07%	7.5%
Cc1cc(O)c2c(c1)C(=O)c1cccc(O)c1C2=O	99.4%	121%	126%	100%	122%	133%	135%	135%	116%	70.5%	71.6%	–	–	–	–	–	–	–	–	–	–	–	117%	111%	124%	109%	137%	140%	134%	110%	123%	81.2%	64.7%
O=C1\C=C/C=C2/[C@H]3CNC[C@H](C3)CN12	97.4%	95.2%	103%	108%	101%	106%	114%	104%	102%	112%	103%	101%	104%	102%	113%	123%	114%	103%	127%	113%	112%	61.2%	108%	76.6%	101%	118%	112%	123%	120%	119%	126%	103%	113%
C/C(=N\NC(=S)N1CCC1)c1ccccn1	98.2%	65.1%	24%	16.3%	8.49%	7%	6.15%	4.65%	3.75%	2.98%	4.69%	102%	77.1%	23.7%	12.9%	6.82%	6.63%	5.22%	3.59%	2.32%	1.6%	3.57%	110%	53.4%	19.2%	15.8%	6.49%	6.19%	5.7%	4.26%	3.13%	1.84%	2.93%
NC[C@@H]1O[C@H](O[C@H]2[C@@H](O)[C@H](O[C@@H]3[C@@H](O)[C@H](N)C[C@H](N)[C@H]3O[C@H]3O[C@H](CN)[C@@H](O)[C@H](O)[C@H]3N)O[C@@H]2CO)[C@H](N)[C@@H](O)[C@@H]1O.O=S(=O)(O)O.O=S(=O)(O)O.O=S(=O)(O)O	104%	99.7%	103%	106%	98.4%	99.4%	104%	91%	98.7%	105%	106%	92.9%	105%	110%	98.8%	69.1%	101%	101%	102%	104%	94%	105%	109%	115%	116%	113%	90.7%	104%	115%	105%	108%	105%	100%
N#Cc1ccc(Oc2ccc3c(c2)COB3O)cc1	111%	122%	111%	104%	124%	114%	126%	114%	117%	105%	46.4%	105%	108%	112%	92.3%	122%	114%	115%	133%	120%	129%	26.9%	115%	127%	119%	85%	126%	107%	120%	129%	97.3%	124%	38.4%
O=C(CCCCCCC(=O)Nc1cccnc1)NO	78.3%	106%	96.7%	97.2%	114%	104%	108%	88.5%	76.8%	17.6%	6.38%	101%	105%	102%	106%	101%	115%	97.5%	77.2%	81.7%	11.9%	5.78%	87.8%	93.6%	89.2%	101%	95.5%	99%	105%	81.9%	64%	13.5%	6.39%
Cc1ccccc1C(OCCN(C)C)c1ccccc1 (stereo unspecified)	102%	95.2%	106%	101%	105%	119%	120%	115%	117%	117%	99.1%	105%	108%	128%	115%	98.9%	109%	124%	121%	107%	103%	99.4%	99.3%	109%	116%	120%	124%	125%	122%	130%	121%	115%	114%
CC(C)(S)[C@@H](N)C(=O)O	75.7%	94.7%	96%	109%	72.8%	108%	90.5%	110%	97.3%	104%	20%	75%	94.5%	100%	100%	64.8%	110%	110%	107%	113%	107%	13.3%	91.1%	99.8%	105%	99.4%	84.9%	103%	104%	107%	122%	116%	16.1%
c1ccc2c(Cc3c[nH]c4ccccc34)c[nH]c2c1	93.8%	95.3%	97.5%	89.4%	88.7%	82.2%	73.8%	80.3%	78.9%	62.1%	18.6%	106%	92.9%	96%	104%	90.3%	81.1%	73.8%	78.6%	76.4%	71.5%	14.6%	103%	99%	109%	101%	73.2%	82.7%	72.3%	74.7%	68.3%	56.1%	15.8%
